pEC50: −log10 of the molar value.
Molecular target: glucosylceramide synthase (GCS) (Homo sapiens (Human), UniProt Q16739)
Assay: UDP-Glo glucosylceramide synthase biochemical assay
Conditions: endogenous GCS in Golgi preparations from human A375 malignant melanoma skin cells; C6 ceramide and UDP-glucose substrates; 20 h incubation at room temperature; UDP detected by luminescence
Source text: A UDP-Glo™ glucosylceramide synthase biochemical assay was utilized to evaluate the effect of test compounds on the activity of endogenous levels of GCS enzyme contained within Golgi preparations isolated from human A375 malignant melanoma skin cells. The UDP-Glo™ glucosylceramide synthase assay uses UDP-Glucose as a nucleotide-glycosyl donor and ceramide as substrate acceptor molecules. In the reaction, glucosylceramide synthase (GCS) transfers glucose from UDP-Glucose to ceramide. Glucosylceramide and UDP are released as products.
Using Promega's UDP-Glo™ Glycosyltransferase assay kit (Promega Corporation, Madison, WI, USA (Promega)), GCS activity was indirectly measured by detecting the amount of UDP produced. An aliquot of GCS enzyme (1.5 μg crude golgi preparation, total protein) and titrated test compound were aliquoted to each well and incubated for 30 minutes at room temperature. […] An equivalent volume of substrate mixture was then added to each well. Following a 20 h incubation at room temperature to allow for GCS turnover of substrate, an equal volume of UDP detection reagent (Promega) was added to each well and incubated for an additional 75 minutes at room temperature to simultaneously convert the accumulated UDP product into ATP and generate light in a luciferase reaction. The generated light was detected using a luminometer. […] luminescence values (RLUs) were normalized to mean “min” and “max” effects, as determined on each plate. […] Values for % Emax and EC50 were determined by best-fitting the normalized data to a curve in Activity Base along a four-parameter logistic nonlinear regression (4PL) model (based on the Levenberg-Marquardt algorithm and defined by the equation below): […]
where: n is 4PMin (bottom of the curve); m is 4PMax (top of the curve); i is IP (inflection point of curve); and p is slope. See Levenberg, K., “A Method for the Solution of Certain Problems in Least Squares”, Quart. Appl. Math. 2, (1944), pp 164-168 and Marquardt, D., “An Algorithm for Least Squares Estimation on Nonlinear Parameters”, SIAM J. Appl. Math. 11, (1963) pp 431-441.

Chain of glucosylceramide synthase (GCS) (Q16739 whole entry): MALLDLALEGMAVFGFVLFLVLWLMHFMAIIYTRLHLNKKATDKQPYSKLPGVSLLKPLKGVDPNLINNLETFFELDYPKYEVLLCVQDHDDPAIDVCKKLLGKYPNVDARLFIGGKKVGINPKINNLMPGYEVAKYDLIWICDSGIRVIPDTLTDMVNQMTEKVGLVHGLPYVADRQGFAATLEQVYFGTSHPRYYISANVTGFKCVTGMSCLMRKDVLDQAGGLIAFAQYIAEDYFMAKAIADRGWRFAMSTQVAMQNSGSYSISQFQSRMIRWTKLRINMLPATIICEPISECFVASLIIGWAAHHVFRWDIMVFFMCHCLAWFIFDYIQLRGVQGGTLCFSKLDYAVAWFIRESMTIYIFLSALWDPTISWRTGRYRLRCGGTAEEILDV

Compound	pEC50
O=C(c1nn(-c2ccc(F)c(Cl)c2)c2c1CCC2)N1CCN2CCC1CC2 [Compound 25, [1-(3-chloro-4-fluorophenyl)-1,4,5,6-tetrahydrocyclopenta[c]pyrazol-3-yl]-(1,4-diazabicyclo[3.2.2]nonan-4-yl)methanone]	8.89
COc1ccc(-n2nc(C(=O)N3CCN4CCC3CC4)c3c2CCC3)cc1C(F)(F)F [Compound 21, 1,4-diazabicyclo[3.2.2]nonan-4-yl-[1-[4-methoxy-3-(trifluoromethyl)phenyl]-1,4,5,6-tetrahydrocyclopenta[c]pyrazol-3-yl]methanone]	10.00
COc1ccc(-n2nc(C(=O)N3CCCN(C)CC3)c3c2CCOC3)cc1 [Compound 4, [1-(4-methoxyphenyl)-1,4,6,7-tetrahydropyrano[4,3-c]pyrazol-3-yl]-(4-methyl-1,4-diazepan-1-yl)methanone]	6.03
COc1ccc(-n2nc(C(=O)N3CCNCC(F)C3)c3c2CCOC3)cc1 (racemic) [Compound 13, Racemic-(6-fluoro-1,4-diazepan-1-yl)-[1-(4-methoxyphenyl)-1,4,6,7-tetrahydropyrano[4,3-c]pyrazol-3-yl]methanone]	5.60
COc1ccc(-n2nc(C(=O)N3CCN4CCC3C(F)(F)C4)c3c2CCOC3)cc1 (single isomer, unassigned) [Compound 3, [(5˜{S or R})-6,6-difluoro-1,4-diazabicyclo[3.2.2]nonan-4-yl]-[1-(4-methoxyphenyl)-1,4,6,7-tetrahydropyrano[4,3-c]pyrazol-3-yl]methanone]	5.85
O=C(c1nn(-c2ccc(Cl)c(Cl)c2)c2c1CCC2)N1CCN2CCC1CC2 [Compound 24, 1,4-diazabicyclo[3.2.2]nonan-4-yl-[1-(3,4-dichlorophenyl)-1,4,5,6-tetrahydrocyclopenta[c]pyrazol-3-yl]methanone]	10.00
COc1ccc(-n2nc(C(=O)N3CCN4CCC3C4)c3c2CCOC3)cc1 (racemic) [Compound 10, Racemic-1,4-diazabicyclo[3.2.1]octan-4-yl-[1-(4-methoxyphenyl)-1,4,6,7-tetrahydropyrano[4,3-c]pyrazol-3-yl]methanone]	6.74
COc1ccc(-n2nc(C(=O)N3CCN4CCC3C(F)(F)C4)c3c2CCOC3)cc1 (single isomer, unassigned) [Compound 2, [(5˜{R or S})-6,6-difluoro-1,4-diazabicyclo[3.2.2]nonan-4-yl]-[1-(4-methoxyphenyl)-1,4,6,7-tetrahydropyrano[4,3-c]pyrazol-3-yl]methanone]	5.11
O=C(c1nn(-c2cccc(Cl)c2)c2c1CCC2)N1CCN2CCC1CC2 [Compound 26, [1-(3-chlorophenyl)-1,4,5,6-tetrahydrocyclopenta[c]pyrazol-3-yl]-(1,4-diazabicyclo[3.2.2]nonan-4-yl)methanone]	8.82
O=C(c1nn(-c2ccc(OC(F)F)cc2)c2c1COCC2)N1CCN2CCC1CC2 [Compound 5, 1,4-diazabicyclo[3.2.2]nonan-4-yl-[1-[4-(difluoromethoxy)phenyl]-1,4,6,7-tetrahydropyrano[4,3-c]pyrazol-3-yl]methanone]	7.54
COc1ccc(-n2nc(C(=O)N3CCCN(C)CC3)c3c2CCOC3)cc1F [Compound 15, [1-(3-fluoro-4-methoxyphenyl)-1,4,6,7-tetrahydropyrano[4,3-c]pyrazol-3-yl]-(4-methyl-1,4-diazepan-1-yl)methanone]	6.14
COc1ccc(-n2nc(C(=O)N3CCN4CCC3CC4)c3c2CCC3)cc1F [Compound 18, 1,4-diazabicyclo[3.2.2]nonan-4-yl-[1-(3-fluoro-4-methoxyphenyl)-1,4,5,6-tetrahydrocyclopenta[c]pyrazol-3-yl]methanone]	9.05
COc1ccc(-n2nc(C(=O)N3CCN4CCC3CC4)c3c2CCC3)cc1 [Compound 17, 1,4-diazabicyclo[3.2.2]nonan-4-yl-[1-(4-methoxyphenyl)-1,4,5,6-tetrahydrocyclopenta[c]pyrazol-3-yl]methanone]	8.77
COc1ccc(-n2nc(C(=O)N3CC[N@@]4CCC3C(F)(F)C4)c3c2CCC3)cc1C(F)(F)F (single isomer, unassigned) [Compound 23, [S or R]-(6,6-difluoro-1,4-diazabicyclo[3.2.2]nonan-4-yl)-[1-[4-methoxy-3-(trifluoromethyl)phenyl]-1,4,5,6-tetrahydrocyclopenta[c]pyrazol-3-yl]methanone]	7.18
COc1ccc(-n2nc(C(=O)N3CCCN(C)CC3)c3c2CCOC3)cc1C(F)(F)F [Compound 14, [1-[4-methoxy-3-(trifluoromethyl)phenyl]-1,4,6,7-tetrahydropyrano[4,3-c]pyrazol-3-yl]-(4-methyl-1,4-diazepan-1-yl)methanone]	6.49
COc1ccc(-n2nc(C(=O)N3CCC4CCC(C3)N4)c3c2CCOC3)cc1 (racemic) [Compound 12, Racemic-3,9-diazabicyclo[4.2.1]nonan-3-yl-[1-(4-methoxyphenyl)-1,4,6,7-tetrahydropyrano[4,3-c]pyrazol-3-yl]methanone]	6.08
Cc1ccc(-n2nc(C(=O)N3CCN4CCC3CC4)c3c2CCC3)cc1Cl [Compound 27, [1-(3-chloro-4-methylphenyl)-1,4,5,6-tetrahydrocyclopenta[c]pyrazol-3-yl]-(1,4-diazabicyclo[3.2.2]nonan-4-yl)methanone]	9.52
COc1ccc(-n2nc(C(=O)N3CCCNCC3)c3c2CCOC3)cc1 [Compound 6, 1,4-diazepan-1-yl-[1-(4-methoxyphenyl)-1,4,6,7-tetrahydropyrano[4,3-c]pyrazol-3-yl]methanone]	6.44
COc1ccc(-n2nc(C(=O)N3CCCNCC3C)c3c2CCOC3)cc1 (racemic) [Compound 7, Racemic-[1-(4-methoxyphenyl)-1,4,6,7-tetrahydropyrano[4,3-c]pyrazol-3-yl]-(2-methyl-1,4-diazepan-1-yl)methanone]	6.60
COc1ccc(-n2nc(C(=O)N3CCN4CCC3CC4)c3c2CCOC3)cc1Cl [Compound 16, [1-(3-chloro-4-methoxyphenyl)-1,4,6,7-tetrahydropyrano[4,3-c]pyrazol-3-yl]-(1,4-diazabicyclo[3.2.2]nonan-4-yl)methanone]	8.66
O=C(c1nn(-c2ccc(OC(F)F)c(Cl)c2)c2c1CCC2)N1CCN2CCC1CC2 [Compound 28, [1-[3-chloro-4-(difluoromethoxy)phenyl]-1,4,5,6-tetrahydrocyclopenta[c]pyrazol-3-yl]-(1,4-diazabicyclo[3.2.2]nonan-4-yl)methanone]	8.89
COc1ccc(-n2nc(C(=O)N3CCN4CCC3CC4)c3c2CCC3)cc1C [Compound 20, 1,4-diazabicyclo[3.2.2]nonan-4-yl-[1-(4-methoxy-3-methylphenyl)-1,4,5,6-tetrahydrocyclopenta[c]pyrazol-3-yl]methanone]	9.40
COc1ccc(-n2nc(C(=O)N3CCNCC4(CC4)C3)c3c2CCOC3)cc1 [Compound 8, 5,8-diazaspiro[2.6]nonan-8-yl-[1-(4-methoxyphenyl)-1,4,6,7-tetrahydropyrano[4,3-c]pyrazol-3-yl]methanone]	5.92
COc1ccc(-n2nc(C(=O)N3CCN4CCC3C(F)(F)C4)c3c2CCC3)cc1C(F)(F)F (single isomer, unassigned) [Compound 22, [R or S]-(6,6-difluoro-1,4-diazabicyclo[3.2.2]nonan-4-yl)-[1-[4-methoxy-3-(trifluoromethyl)phenyl]-1,4,5,6-tetrahydrocyclopenta[c]pyrazol-3-yl]methanone]	7.80
COc1ccc(-n2nc(C(=O)N3CCN4CCC3CC4)c3c2CCC3)cc1Cl [Compound 19, [1-(3-chloro-4-methoxyphenyl)-1,4,5,6-tetrahydrocyclopenta[c]pyrazol-3-yl]-(1,4-diazabicyclo[3.2.2]nonan-4-yl)methanone]	9.52
